Source: patent US20220395500A1, “SMALL MOLECULE ACTIVATORS OF INTERFERON REGULATORY FACTOR 3 AND METHODS OF USE THEREOF” (Neuralexo, Inc., priority 2020, published 2022)

Columns and labels:
[1] = tested on: IRF-Lucia luciferase reporter (ISRE) in THP1-Dual cells; assay: THP1-Dual IRF-Lucia luciferase reporter assay (ISRE activation); assay type: cell-based, human; conditions: human THP1 pilot screen, 10 μM, 3 screens; for Average ISRE % Activation: 24 hours, percent of LPS activation signal +/− SD
Description: THP1 Dual (InvivoGen) cell suspensions were cultured in RPMI 1640 (Hyclone, Logan, Utah) supplemented with 10% fetal bovine serum (Hyclone), 100 U/mL Normocin (Invivogen), and 50 U/mL PenStrep (Gibco, Dublin, Ireland) between a density of 7·10^5-2·10^6 cells/mL. Every other passage, media was supplemented with 5 U/mL Blasticidin and 100 U/mL Zeocin to maintain the expression constructs. White, flat-bottom 384-well plates (Greiner, Kremsmunster, Austria, 781080) were seeded with 2.5·10^4 cells/well in a total of 50 μL media containing 5 ng/mL phorbolmyristic acid (PMA) using a Matrix WellMate (Thermo Scientific) dispenser. After 48 hours of incubation at 37° C., media was removed using a BioTek ELx405 CW plate washer set to aspirate and wash each well three times with 65 μL 1×PBS. Plates were reloaded with 50 μL media without PMA and treatments added. Lipopolysaccharide in dimethylsulfoxide (DMSO) was transferred to control wells using a HP D300 microdispenser to a final concentration of 313 ng/mL. Compounds from chemical library plates were copied using a Sciclone (Caliper LifeSciences) mounted with a 384-pin transfer tool to obtain a final concentration of 10 μM. After incubation with treatments for 24 hours, 10 μL of supernatant media from each well was transferred into a white, flat-bottom 384-well plate for luminescence readout and a black-walled, clear flat-bottom 384-well plate for absorbance readout.
Specifically, to enable screening of novel chemical entities (NCEs) in a larger screening effort, a robust high-throughput cell-based assay system for primary hit identification of ISRE activators based on the above-mentioned target validation was desired. Human ISRE activity was verified using a THP-1 monocyte line containing the NF-κB-SEAP and IRF-Lucia luciferase dual reporter (THP1-Dual; Invivogen) that features two reporter genes, SEAP (secreted embryonic alkaline phosphatase) and Lucia luciferase, thereby enabling the simultaneous study of the NF-κB and IRF signalling pathways. The Lucia luciferase reporter is under the control of an ISG54 (interferon-stimulated gene) minimal promoter in conjunction with five IFN-stimulated response elements. The SEAP gene is driven by an IFN-β minimal promoter fused to five copies of the NF-κB consensus transcriptional response element and three copies of the c-Rel binding site. Both reporter proteins are readily measurable in the cell culture supernatant when using QUANTI-LUC™ and QUANTI-Blue SEAP detection reagents.
The responsiveness of the human THP-1 Dual cell line was evaluated in an array of assay conditions to obtain sensitive and reproducible results for the activation of IRF and NF-κB reporters. […] All transfer steps are fully automated using high throughput robotic equipment. Briefly, cells are seeded in differentiation medium using a Matrix WellMate fitted with the WellMate Stacker (Thermo Scientific) and incubated at 37° C. with 5% CO2 for 48 h. Following differentiation, cells are washed using a BioTek ELx405 Select CW plate washer and growth medium added with the Matrix WellMate. Programmed control treatments are added to wells using a D300 digital dispenser fitted with T8+ dispense heads (Hewlett Packard) designed to dispense nanoliter quantities of material. Compounds from library plates are added using a pin tool fitted to a Sciclone ALH 3000 Workstation (Caliper Life Sciences) programmed with Maestro v4.4. After treatment, plates are returned to incubators for 24 hours. To measure reporter expression, supernatant is collected using the Sciclone and dispensed into 2 plates: 1) a white 384-well assay plate for Lucia luminescence measurements and 2) a clear-bottom black 384-well assay plate for SEAP absorbance measurements.

[2] = J774-Dual cytotoxicity; assay type: cell-based, mouse; conditions: mouse, J774-Dual cells, read-out: J774 cytotox CC50
Description: The OTRADI Small Molecule Library of approximately 246,000 diverse compounds (see below for description) was screened using the THP1-Dual based HTS platform described above. All transfer steps in the screen are fully automated, thus reducing variability. Primary screening included a single data point or dose for each molecule. After data normalization was applied for each assay run, “hit” selection was performed on the plates that pass the quality control (QC) criterion. Hits were defined as samples having values above the activity cutoff determined based on noise level of the assay to reduce false positive rates. […] The ratio of ISRE:NFκB activity was also calculated as a selectivity index for prioritizing hit selection. Primary hits underwent secondary screening to determine the 50% effective concentration (EC50) and 50% cytotoxic concentration (CC50) of these agents using an 8-point dose-response curve in the human THP1-Dual cells. Cytotoxicity was measured in the plate using Cell Titer Glo (Promega). Identified candidate compounds were further screened (orthogonal screen) for cross species activity in the validated mouse J774-Dual assay using an 8-point dose-response format to determine EC50 and CC50 values as well as ISRE:NFκB ratios. A general process flow for the experimental design laid out above is depicted at FIG. 12.

[3] = THP1-Dual cytotoxicity (Cell Titer Glo, ATP); assay type: cell-based, human; conditions: human, THP1-Dual cells, read-out: Thp1 cytotox CC50
Source text: FIG. 9C is a CC50 (50% cytotoxic concentration) graph of AV-C dependent IRF activation in THP1-Dual cells, determined with an 8-point dose response experiment. Cell viability was monitored based on quantitation of ATP present, as an indicator of metabolically active cells, where luminescence is proportional to the amount of ATP present, using Cell-Titer Glo (Promega).
The OTRADI Small Molecule Library of approximately 246,000 diverse compounds (see below for description) was screened using the THP1-Dual based HTS platform described above. All transfer steps in the screen are fully automated, thus reducing variability. Primary screening included a single data point or dose for each molecule. After data normalization was applied for each assay run, “hit” selection was performed on the plates that pass the quality control (QC) criterion. Hits were defined as samples having values above the activity cutoff determined based on noise level of the assay to reduce false positive rates. In the pilot study discussed above this activity value was >3σ above the ISRE mean with the added criteria of NFκB activation being lower than […] from the mean to identify IRF selective compounds. The ratio of ISRE:NFκB activity was also calculated as a selectivity index for prioritizing hit selection. Primary hits underwent secondary screening to determine the 50% effective concentration (EC50) and 50% cytotoxic concentration (CC50) of these agents using an 8-point dose-response curve in the human THP1-Dual cells. Cytotoxicity was measured in the plate using Cell Titer Glo (Promega). Identified candidate compounds were further screened (orthogonal screen) for cross species activity in the validated mouse J774-Dual assay using an 8-point dose-response format to determine EC50 and CC50 values as well as ISRE:NFκB ratios. A general process flow for the experimental design laid out above is depicted at FIG. 12.

Row | Compound | CC50 ([2]; Mouse Reporter Cell Line J774) | CC50 ([3]; Human Reporter Cell Line THP1) | CC50 ([2]; Mouse Reporter Cell Line) | CC50 ([3]; Human Reporter Cell Line) | further results
1 | CCN(CC)CCCC(C)Nc1c2ccc(Cl)cc2nc2ccc(OC)cc12.Cl.Cl (centres unmarked) [Quinacrine Hydrochloride, reference compound] |  |  |  |  | Average ISRE/NFκB (Range) [1]: 1.4 (1.0-2.0); Average ISRE % Activation [1]: 5.7 +/− 2.9%
2 | Cc1ccc(-c2nc3cc(C(C)C)ccc3o2)cc1NC(=O)c1cc2ccccc2o1 [ND-12] | > 25 µM | 47.6 µM |  |  | 
3 | CCOc1ccc(C(=O)Nc2cccc(-c3nc4cc(C(C)C)ccc4o3)c2)cc1[N+](=O)[O-] [ND-17] | > 25 µM | > 25 µM |  |  | 
4 | Cc1cc2nc(-c3ccc(C)c(N)c3)oc2cc1C [ND-59] | > 25 µM | > 25 µM |  |  | 
5 | COC1=CC(=O)C(O)=C/C1=C\C=C\c1ccccc1 [OTR-0001624-001 (Obtusaquinone), Obtusaquinone, reference compound] |  |  |  |  | Average ISRE/NFκB (Range) [1]: 0.2 (0.2-0.3); Average ISRE % Activation [1]: 1.7 +/− 0.6%
6 | CC(=O)N1CCN(c2ccc(NC(=O)c3ccc(OCc4ccccc4)cc3)cc2)CC1 [NA-2] |  |  | > 25 µM | > 25 µM | 
7 | O=C(Nc1ccc(N2CCN(C(=O)c3cccs3)CC2)c(Cl)c1)c1cc([N+](=O)[O-])ccc1N1CCOCC1 [NA-66] |  |  | > 10 µM | > 10 µM | 
8 | Cc1ccc(-c2nc3cc(C(C)C)ccc3o2)cc1NC(=S)NC(=O)c1cccc(F)c1 [ND-11] | > 25 µM | > 25 µM |  |  | 
9 | COc1ccc(-c2nc3cc(C(C)C)ccc3o2)cc1NC(=O)c1cccc([N+](=O)[O-])c1C [ND-15] | > 25 µM | > 25 µM |  |  | 
10 | Cc1ccc(C(=O)Nc2cc(C(C)C)ccc2O)cc1[N+](=O)[O-] [ND-55] | > 25 µM | > 25 µM |  |  | 
11 | COc1ccc(C(=O)Nc2cccc(-c3nc4ccccc4s3)c2C)cc1[N+](=O)[O-] [ND-90] | > 25 µM | > 25 µM |  |  | 
12 | Methapyrilene Hydrochloride [reference compound] |  |  |  |  | Average ISRE/NFκB (Range) [1]: 1.4 (0.4-2.3)
13 | O=C(Nc1ccc(N2CCN(C(=O)c3cccs3)CC2)c(Cl)c1)c1ccc2c(c1)OCCO2 [NA-29] |  |  | 45.8 µM | 65 µM | 
14 | Cc1ccc(Cn2cc(CN3CCN(C(=O)c4cccs4)CC3)nn2)cc1 [NA-55] |  |  | > 25 µM | > 25 µM | 
15 | O=C(Nc1ccc(N2CCN(C(=O)c3ccco3)CC2)cc1)c1ccccc1F [NA-3] |  |  | > 25 µM | > 25 µM | 
16 | Cc1ccc(-c2nc3cc(C(C)C)ccc3o2)cc1NC(=O)c1ccc(Cl)cc1 [ND-53] | > 25 µM | > 25 µM |  |  | 
17 | O=C(Nc1ccc(N2CCN(C(=O)c3cccs3)CC2)cc1)c1ccc(N2CCCCC2)c([N+](=O)[O-])c1 [NA-70] |  |  | > 10 µM | > 10 µM | 
18 | O=C(Nc1ccc(N2CCN(C(=O)c3cccs3)CC2)cc1)c1ccc2c(c1)OCO2 [NA-12] |  |  | > 25 µM | > 25 µM | 
